Data taken from publication PMC5218480 (PLoS ONE, 2017).

Tested on: MV-4-11 cells
Experiment: Gene expression microarray analysis (Affymetrix PrimeView) and GSEA
Format: cell-based, human
Parameters: RFU PODN (11730768_x_at) / Fold change /veh PODN (11730768_x_at) / RFU LINC00158 (11744669_a_at) / Fold change /veh LINC00158 (11744669_a_at) / RFU DUSP10 (11751237_a_at) / Fold change /veh DUSP10 (11751237_a_at) / RFU ID3 (11757404_x_at) / Fold change /veh ID3 (11757404_x_at) / RFU PLEKHG5 (11737974_s_at) / Fold change /veh PLEKHG5 (11737974_s_at) / RFU LRRC4B (11730491_at) / Fold change /veh LRRC4B (11730491_at) / RFU GIMAP4 (11747438_a_at) / Fold change /veh GIMAP4 (11747438_a_at) / RFU KRT8 (11758183_x_at) / Fold change /veh KRT8 (11758183_x_at) / RFU CNN1 (11734310_a_at) / Fold change /veh CNN1 (11734310_a_at) / RFU VPS37D (11726825_at) / Fold change /veh VPS37D (11726825_at) / RFU C10orf10 (11716522_x_at) / Fold change /veh C10orf10 (11716522_x_at) / RFU KIR2DL2 /// KIR2DL4 /// KIR2DL5A /// KIR2DL5B /// KIR2DS1 /// KIR2DS2 /// KIR2DS3 /// KIR2DS4 /// KIR3DL3 /// KIR3DL3 /// KIR3DS1 (11738374_at) / Fold change /veh KIR2DL2 /// KIR2DL4 /// KIR2DL5A /// KIR2DL5B /// KIR2DS1 /// KIR2DS2 /// KIR2DS3 /// KIR2DS4 /// KIR3DL3 /// KIR3DL3 /// KIR3DS1 (11738374_at) / RFU C1QL1 (11718748_at) / Fold change /veh C1QL1 (11718748_at) / RFU TMPRSS4 (11747572_a_at) / Fold change /veh TMPRSS4 (11747572_a_at) / RFU HAMP (11756126_x_at) / Fold change /veh HAMP (11756126_x_at) / RFU RNFT2 (11725882_a_at) / Fold change /veh RNFT2 (11725882_a_at) / RFU NR4A2 (11747474_a_at) / Fold change /veh NR4A2 (11747474_a_at) / RFU ABCC12 (11746883_a_at) / Fold change /veh ABCC12 (11746883_a_at) / RFU TMEM136 (11760407_x_at) / Fold change /veh TMEM136 (11760407_x_at) / RFU CLDN22 /// WWC2 (11732394_at) / Fold change /veh CLDN22 /// WWC2 (11732394_at) / RFU HLA-DPB1 (11760878_x_at) / Fold change /veh HLA-DPB1 (11760878_x_at) / RFU SPINT1 (11716480_a_at) / Fold change /veh SPINT1 (11716480_a_at) / RFU GAP43 (11754022_s_at) / Fold change /veh GAP43 (11754022_s_at) / RFU A4GNT (11735810_at) / Fold change /veh A4GNT (11735810_at) / RFU PRB3 (11715151_x_at) / Fold change /veh PRB3 (11715151_x_at) / RFU TUBB4B (11761932_at) / Fold change /veh TUBB4B (11761932_at) / RFU CAPN14 (11732068_a_at) / Fold change /veh CAPN14 (11732068_a_at) / RFU TMCC2 (11721928_a_at) / Fold change /veh TMCC2 (11721928_a_at) / RFU IRGQ (11745062_a_at) / Fold change /veh IRGQ (11745062_a_at) / RFU FAM174B (11720279_a_at) / Fold change /veh FAM174B (11720279_a_at) / RFU TMPRSS4 (11748680_a_at) / Fold change /veh TMPRSS4 (11748680_a_at) / RFU FAM212B (11763350_a_at) / Fold change /veh FAM212B (11763350_a_at) / RFU PLEKHG5 (11743358_a_at) / Fold change /veh PLEKHG5 (11743358_a_at) / RFU ZSCAN30 (11745921_a_at) / Fold change /veh ZSCAN30 (11745921_a_at) / RFU CMKLR1 (11741424_a_at) / Fold change /veh CMKLR1 (11741424_a_at) / RFU LOC101060620 /// MAPK8IP1 (11723275_at) / Fold change /veh LOC101060620 /// MAPK8IP1 (11723275_at) / RFU SPTSSB (11747773_x_at) / Fold change /veh SPTSSB (11747773_x_at) / RFU PRSS12 (11739890_at) / Fold change /veh PRSS12 (11739890_at) / RFU BIN1 (11741810_x_at) / Fold change /veh BIN1 (11741810_x_at) / RFU WNT11 (11732464_a_at) / Fold change /veh WNT11 (11732464_a_at) / RFU C10orf10 (11716521_a_at) / Fold change /veh C10orf10 (11716521_a_at) / RFU C5orf56 (11738089_at) / Fold change /veh C5orf56 (11738089_at) / RFU CYB561 (11721691_x_at) / Fold change /veh CYB561 (11721691_x_at) / RFU ANKRD19P (11752326_a_at) / Fold change /veh ANKRD19P (11752326_a_at) / RFU OR2T12 /// OR2T33 /// OR2T8 (11738714_s_at) / Fold change /veh OR2T12 /// OR2T33 /// OR2T8 (11738714_s_at) / RFU VCAN (11748164_a_at) / Fold change /veh VCAN (11748164_a_at) / RFU JSRP1 (11732532_at) / Fold change /veh JSRP1 (11732532_at) / RFU KRTAP10-11 (11738290_x_at) / Fold change /veh KRTAP10-11 (11738290_x_at) / RFU MYO3A (11730013_a_at) / Fold change /veh MYO3A (11730013_a_at) / RFU EBF3 (11725865_a_at) / Fold change /veh EBF3 (11725865_a_at) / RFU CAMK2N1 (11719241_x_at) / Fold change /veh CAMK2N1 (11719241_x_at) / RFU C5orf56 (11738088_a_at) / Fold change /veh C5orf56 (11738088_a_at) / RFU OLFML3 (11715873_a_at) / Fold change /veh OLFML3 (11715873_a_at) / RFU LOC100653217 /// NTM (11731650_a_at) / Fold change /veh LOC100653217 /// NTM (11731650_a_at) / RFU MAPK11 (11762145_a_at) / Fold change /veh MAPK11 (11762145_a_at) / RFU FIZ1 (11724087_x_at) / Fold change /veh FIZ1 (11724087_x_at) / RFU OASL (11726364_x_at) / Fold change /veh OASL (11726364_x_at) / RFU SOX15 (11748057_x_at) / Fold change /veh SOX15 (11748057_x_at) / RFU CD79A (11719716_a_at) / Fold change /veh CD79A (11719716_a_at) / RFU HIST1H1D (11736915_at) / Fold change /veh HIST1H1D (11736915_at) / RFU CASKIN2 (11723855_a_at) / Fold change /veh CASKIN2 (11723855_a_at) / RFU LOC730098 (11760151_x_at) / Fold change /veh LOC730098 (11760151_x_at) / RFU OR4N2 (11742367_at) / Fold change /veh OR4N2 (11742367_at) / RFU PRRT2 (11749266_a_at) / Fold change /veh PRRT2 (11749266_a_at) / RFU SNX32 (11753110_a_at) / Fold change /veh SNX32 (11753110_a_at) / RFU CDHR5 (11726645_a_at) / Fold change /veh CDHR5 (11726645_a_at) / RFU RCAN1 (11760418_a_at) / Fold change /veh RCAN1 (11760418_a_at) / RFU FAM167A (11723789_a_at) / Fold change /veh FAM167A (11723789_a_at) / RFU FAM26E (11764081_at) / Fold change /veh FAM26E (11764081_at) / RFU ISYNA1 (11749810_s_at) / Fold change /veh ISYNA1 (11749810_s_at) / RFU ACY1 (11761880_at) / Fold change /veh ACY1 (11761880_at) / RFU 11764098_at / Fold change /veh 11764098_at / RFU SAMD14 (11745864_x_at) / Fold change /veh SAMD14 (11745864_x_at) / RFU NPB (11741838_a_at) / Fold change /veh NPB (11741838_a_at) / RFU TMPRSS6 (11731388_a_at) / Fold change /veh TMPRSS6 (11731388_a_at) / RFU KRTAP10-2 (11738614_at) / Fold change /veh KRTAP10-2 (11738614_at) / RFU ARHGAP8 /// PRR5-ARHGAP8 (11727945_x_at) / Fold change /veh ARHGAP8 /// PRR5-ARHGAP8 (11727945_x_at) / RFU KRTAP5-7 /// NADSYN1 (11734609_at) / Fold change /veh KRTAP5-7 /// NADSYN1 (11734609_at) / RFU RASL12 (11751679_a_at) / Fold change /veh RASL12 (11751679_a_at) / RFU CDKN2B (11736163_a_at) / Fold change /veh CDKN2B (11736163_a_at) / RFU PRF1 (11729649_at) / Fold change /veh PRF1 (11729649_at) / RFU, ZNF638 /// ZNF638-IT1 / Fold change vs veh, ZNF638 /// ZNF638-IT1 / RFU, PANK3 / Fold change vs veh, PANK3 / RFU, SH3YL1 / Fold change vs veh, SH3YL1 / RFU, ZEB2 / Fold change vs veh, ZEB2 / RFU, NRIP1 / Fold change vs veh, NRIP1 / RFU, PTTG1IP / Fold change vs veh, PTTG1IP / RFU, CAPN2 / Fold change vs veh, CAPN2 / RFU, MED14 / Fold change vs veh, MED14 / RFU, SNORA58 / Fold change vs veh, SNORA58 / RFU, C1orf63 / Fold change vs veh, C1orf63 / RFU, LRRFIP1 / Fold change vs veh, LRRFIP1 / RFU, NDUFAF7 / Fold change vs veh, NDUFAF7 / RFU, SLC12A2 / Fold change vs veh, SLC12A2 / RFU, IBTK / Fold change vs veh, IBTK / RFU, ESF1 / Fold change vs veh, ESF1 / Fold change vs veh, TMEM50B / RFU, TAOK1 / Fold change vs veh, TAOK1 / RFU, ACBD3 / Fold change vs veh, ACBD3 / RFU, TMA16 / Fold change vs veh, TMA16 / RFU, RWDD3 / Fold change vs veh, RWDD3 / RFU, BCAT1 / Fold change vs veh, BCAT1 / RFU, EDEM3 / Fold change vs veh, EDEM3 / RFU, TMEM33 / Fold change vs veh, TMEM33 / RFU, WDR75 / Fold change vs veh, WDR75 / RFU, AHCTF1 / Fold change vs veh, AHCTF1 / RFU, TFRC / Fold change vs veh, TFRC / RFU, ZDHHC17 / Fold change vs veh, ZDHHC17 / RFU, NOM1 / Fold change vs veh, NOM1 / RFU, ARL8B / Fold change vs veh, ARL8B / RFU, ZBTB11 / Fold change vs veh, ZBTB11 / RFU, TAMM41 / Fold change vs veh, TAMM41 / RFU, KIAA1704 /// LOC100996395 / Fold change vs veh, KIAA1704 /// LOC100996395 / RFU, ING1 / Fold change vs veh, ING1 / RFU, TRMT61B / Fold change vs veh, TRMT61B / RFU, FUBP3 / Fold change vs veh, FUBP3 / RFU, TP53 / Fold change vs veh, TP53 / RFU, TNKS2 / Fold change vs veh, TNKS2 / RFU, ZFP14 / Fold change vs veh, ZFP14 / RFU, ACTR2 / Fold change vs veh, ACTR2 / RFU, PPP3R1 / Fold change vs veh, PPP3R1 / RFU, PIK3R1 / Fold change vs veh, PIK3R1 / RFU, HNRNPA1 / Fold change vs veh, HNRNPA1 / RFU, RNF170 / Fold change vs veh, RNF170 / RFU, ZNF28 / Fold change vs veh, ZNF28 / RFU, RNGTT / Fold change vs veh, RNGTT / RFU, OGT / Fold change vs veh, OGT / RFU, BRD1 / Fold change vs veh, BRD1 / RFU, MARS / Fold change vs veh, MARS / RFU, ZNF655 / Fold change vs veh, ZNF655 / RFU, FAHD1 / Fold change vs veh, FAHD1 / RFU, BDP1 / Fold change vs veh, BDP1 / RFU, LRRCC1 / Fold change vs veh, LRRCC1 / RFU, ARID1A / Fold change vs veh, ARID1A / RFU, ZNF146 / Fold change vs veh, ZNF146 / RFU, ZNF330 / Fold change vs veh, ZNF330 / RFU, GPN3 / Fold change vs veh, GPN3 / RFU, C9orf123 / Fold change vs veh, C9orf123 / RFU, N4BP2L2 / Fold change vs veh, N4BP2L2 / RFU, ARFIP1 / Fold change vs veh, ARFIP1 / RFU, FAM179B / Fold change vs veh, FAM179B / RFU, BCL10 / Fold change vs veh, BCL10 / RFU, UHRF1BP1L / Fold change vs veh, UHRF1BP1L / RFU, BET1 / Fold change vs veh, BET1 / RFU, CNOT2 / Fold change vs veh, CNOT2 / RFU, ZNF268 / Fold change vs veh, ZNF268 / Fold change vs veh, ZNF507 / RFU, DGCR2 / Fold change vs veh, DGCR2 / RFU, WDSUB1 / Fold change vs veh, WDSUB1 / Fold change vs veh, HSP90B1 /// MIR3652 / RFU, ADSS / Fold change vs veh, ADSS / RFU, GK / Fold change vs veh, GK / RFU, ZNF148 / Fold change vs veh, ZNF148 / RFU, TAF9 / Fold change vs veh, TAF9 / RFU, SLC1A5 / Fold change vs veh, SLC1A5 / RFU, SLMO2 / Fold change vs veh, SLMO2 / RFU, ABCC4 / Fold change vs veh, ABCC4 / RFU, LOC101060439 /// RAP1B / Fold change vs veh, LOC101060439 /// RAP1B / RFU, RFX7 / Fold change vs veh, RFX7 / RFU, GTPBP10 / Fold change vs veh, GTPBP10 / RFU, CNEP1R1 / Fold change vs veh, CNEP1R1 / RFU, BIVM-ERCC5 /// ERCC5 / Fold change vs veh, BIVM-ERCC5 /// ERCC5 / RFU, ILF3 / Fold change vs veh, ILF3 / RFU 11762660_at / Fold change /veh 11762660_at / RFU VCAN (11757783_s_at) / Fold change /veh VCAN (11757783_s_at) / RFU DDX43 (11728927_at) / Fold change /veh DDX43 (11728927_at) / RFU KRT8 (11758188_x_at) / Fold change /veh KRT8 (11758188_x_at) / RFU NKD1 (11759106_at) / Fold change /veh NKD1 (11759106_at) / RFU SRD5A1 (11742802_a_at) / Fold change /veh SRD5A1 (11742802_a_at) / RFU TPSAB1 /// TPSB2 (11721975_s_at) / Fold change /veh TPSAB1 /// TPSB2 (11721975_s_at) / RFU GSTM3 (11746129_a_at) / Fold change /veh GSTM3 (11746129_a_at) / RFU IL23R (11737362_x_at) / Fold change /veh IL23R (11737362_x_at) / RFU TMEM51 (11727254_a_at) / Fold change /veh TMEM51 (11727254_a_at) / RFU PIWIL2 (11732686_x_at) / Fold change /veh PIWIL2 (11732686_x_at) / RFU ORM1 (11744905_x_at) / Fold change /veh ORM1 (11744905_x_at) / RFU CCDC152 (11743942_at) / Fold change /veh CCDC152 (11743942_at) / RFU ECM1 (11717891_a_at) / Fold change /veh ECM1 (11717891_a_at) / RFU IL23R (11748794_a_at) / Fold change /veh IL23R (11748794_a_at) / RFU TNFAIP8L3 (11732012_x_at) / Fold change /veh TNFAIP8L3 (11732012_x_at) / RFU MBOAT4 (11741988_at) / Fold change /veh MBOAT4 (11741988_at) / RFU 11764193_at / Fold change /veh 11764193_at / RFU TMEM53 (11763286_at) / Fold change /veh TMEM53 (11763286_at) / RFU MAGEB2 (11727129_at) / Fold change /veh MAGEB2 (11727129_at) / RFU TMEM200A (11744735_a_at) / Fold change /veh TMEM200A (11744735_a_at) / RFU CCDC152 (11751479_a_at) / Fold change /veh CCDC152 (11751479_a_at) / RFU FAM211A (11726209_a_at) / Fold change /veh FAM211A (11726209_a_at) / RFU RGS16 (11746705_a_at) / Fold change /veh RGS16 (11746705_a_at) / RFU VCAN (11755009_s_at) / Fold change /veh VCAN (11755009_s_at) / RFU RHOB (11743442_s_at) / Fold change /veh RHOB (11743442_s_at) / RFU RGS16 (11720943_a_at) / Fold change /veh RGS16 (11720943_a_at) / RFU RGS16 (11720944_at) / Fold change /veh RGS16 (11720944_at) / RFU, VPS4B / Fold change vs veh, VPS4B / RFU, CREB1 / Fold change vs veh, CREB1 / RFU, DNAJC13 / Fold change vs veh, DNAJC13 / RFU, GNAQ / Fold change vs veh, GNAQ / RFU, CDK5R1 / Fold change vs veh, CDK5R1 / RFU, ZRANB3 / Fold change vs veh, ZRANB3 / RFU, CUL4A / Fold change vs veh, CUL4A / RFU, CCNY / Fold change vs veh, CCNY / RFU, UFL1 / Fold change vs veh, UFL1 / RFU, COG3 / Fold change vs veh, COG3 / RFU, DIAPH2 / Fold change vs veh, DIAPH2 / RFU, SKA2 / Fold change vs veh, SKA2 / RFU, AFF3 / Fold change vs veh, AFF3 / RFU, LMF1 / Fold change vs veh, LMF1 / RFU, IPO11 / Fold change vs veh, IPO11 / RFU, DFFB / Fold change vs veh, DFFB / RFU, FOXP1 / Fold change vs veh, FOXP1 / RFU, CARD8 / Fold change vs veh, CARD8 / RFU, STRN3 / Fold change vs veh, STRN3 / RFU, ADK / Fold change vs veh, ADK / RFU, RASSF2 / Fold change vs veh, RASSF2 / RFU, WIPF1 / Fold change vs veh, WIPF1 / RFU, LARP1B / Fold change vs veh, LARP1B / RFU, RASA1 / Fold change vs veh, RASA1 / RFU, RB1 / Fold change vs veh, RB1 / RFU, PPFIA1 / Fold change vs veh, PPFIA1 / RFU, MAT2A / Fold change vs veh, MAT2A / RFU, CCT5 / Fold change vs veh, CCT5 / RFU, WDR92 / Fold change vs veh, WDR92 / RFU, CUX1 / Fold change vs veh, CUX1 / RFU, TTC7A / Fold change vs veh, TTC7A / RFU, TMEM135 / Fold change vs veh, TMEM135 / RFU, DEPTOR / Fold change vs veh, DEPTOR / RFU, CPM / Fold change vs veh, CPM / RFU, DNAJB6 / Fold change vs veh, DNAJB6 / RFU, CACNA2D3 / Fold change vs veh, CACNA2D3 / RFU, DTX4 / Fold change vs veh, DTX4 / RFU, TFCP2 / Fold change vs veh, TFCP2 / RFU, GMCL1 /// GMCL1P1 / Fold change vs veh, GMCL1 /// GMCL1P1 / RFU, AEBP2 / Fold change vs veh, AEBP2 / RFU, SNHG1 /// SNORD22 /// SNORD25 /// SNORD26 /// SNORD27 /// SNORD28 /// SNORD29 /// SNORD31 / Fold change vs veh, SNHG1 /// SNORD22 /// SNORD25 /// SNORD26 /// SNORD27 /// SNORD28 /// SNORD29 /// SNORD31 / Fold change (Aza/veh), C12orf56 (ProbeSet 11735607_a_at) / Fold change (ACY-1035/veh), C12orf56 (ProbeSet 11735607_a_at) / Fold change (Aza/veh), FGFR1OP (ProbeSet 11751329_s_at) / Fold change (ACY-1035/veh), FGFR1OP (ProbeSet 11751329_s_at) / Fold change (Aza/veh), VPS36 (ProbeSet 11739960_a_at) / Fold change (ACY-1035/veh), VPS36 (ProbeSet 11739960_a_at) / RFU SYPL1 (11715823_x_at) / Fold change /veh SYPL1 (11715823_x_at) / RFU IGFBP7 (11715501_s_at) / Fold change /veh IGFBP7 (11715501_s_at) / RFU REEP3 (11722064_at) / Fold change /veh REEP3 (11722064_at) / RFU IGLL1 (11728026_x_at) / Fold change /veh IGLL1 (11728026_x_at): dose or concentration left out as unconfirmed
Conditions: ProbeSet 11721969_s_at; LIST B

## Nc1ncn([C@@H]2O[C@H](CO)[C@@H](O)[C@H]2O)c(=O)n1 [azacitidine]
  RFU, BDP1: 496.27 RFU
